Assay results from US12152051B2, “Cyclic dinucleotide analogue, pharmaceutical composition thereof, and application” (SHANGHAI DE NOVO PHARMATECH CO., LTD., priority 2018, dated 2024).

Legend:
THP-1 dual cells = test: Type 1 IFN activation assay (THP-1 dual cells, QUANTI-Luc); format: cell-based; conditions: PMA-treated THP-1 dual cells, compound in digitonin PB buffer 30 min, then 24 h, expression level of IFN
Method: Plated THP-1 dual cells (Invivogen) as 100000 cells/well in a 96 well-plate, and then phorbol 12-myristate 13-acetate (PMA) was added and the final concentration of PMA was 30 ng/mL. After 24 h incubation, cells were washed with fresh medium for twice, and 3-folds dilution compounds were added to appropriate wells. The compounds were diluted by PB buffer (50 mM HEPES, 100 mM KCl, 3 mM MgCl2, 0.1 mM DTT, 85 mM sucrose, 1 mM ATP, 0.1 mM GTP, 0.2% o bovine serum albumin and 5 μg/ml digitonin) and the top dose was 10 μM, minimum dose was 0.0015 μM. The cells were incubated for 30 min, and then washed with fresh medium for twice again. Add fresh medium, and the cells were incubated for additional 24 h. After incubation, 10 ul supermant and 50 μL QUANTI-Luc (Invivogen) was add to a 96 well-plate, fluorescence was read with TECAN. The express level of IFN was proportional to the fluorescence intensity. Drew the curve with Graphpad Prism and analyse EC50 of the compounds.

STING = STING (Homo sapiens, UniProt Q86WV6); test: STING IFNβ secretion assay (THP-1 cells, AlphaLISA IFN-β kit); format: cell-based; conditions: 5 h incubation, secretion of IFN-β
Method: Plated 40 uL THP-1 cells (ATCC) as 16000 cells/well in a 96 well-plate (Corning, 3596). 3-folds dilution compounds were added to appropriate wells. The compounds were diluted with buffer (RPMI1640+2 mM L-glutamine+1× non-essential amino acids+1 mM sodium pyruvate+0.5% Fetal bovine serum), and the top dose of the compound was 100 μM, minimum dose was 1.23 μM. After 5 h incubation, […] supernant was added to 384-well plate (Greiner, Cat: 784075) and the secretion of IFN-β was detected with AllphaLISA IFN-β kit(PerkinElmer, Cat:AL577C). 1× buffer was prepared to dilute the receptor and donor, and then 4 μL 20 μg/mL Anti-pIFNβ AlphaLISA receptor was added to every well. After 30 mins incubation at room temperature, 4 μL 2 nM biotinylated Anti-pIFNβ antibody was added to a 384 well-plate, incubated overnight at 4° C. 10 μL 40 µg/mL Streptavidin (SA) donor which was diluted with 1×buffer was added, and then incubated at room temperature for 30 min. Fluorescence was read with TECAN. The expressed level of IFN-β was proportional to the fluorescence intensity. Drew the curve with Graphpad Prism and analysed EC50 of the compounds.

STING, sequence (Q86WV6 whole entry): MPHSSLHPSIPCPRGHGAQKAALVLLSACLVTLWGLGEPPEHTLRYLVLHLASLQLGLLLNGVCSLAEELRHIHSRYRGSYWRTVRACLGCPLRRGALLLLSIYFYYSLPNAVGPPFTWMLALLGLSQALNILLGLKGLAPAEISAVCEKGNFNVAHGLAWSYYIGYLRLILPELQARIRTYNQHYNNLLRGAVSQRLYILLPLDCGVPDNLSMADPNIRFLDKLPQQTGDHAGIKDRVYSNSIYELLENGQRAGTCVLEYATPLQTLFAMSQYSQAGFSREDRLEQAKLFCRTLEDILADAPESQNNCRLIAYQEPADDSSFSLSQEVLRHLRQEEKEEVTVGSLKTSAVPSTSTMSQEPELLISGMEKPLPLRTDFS

Structure (SMILES)	EC50 (THP-1 dual cells)	EC50 (THP-1 dual cells; Homo sapiens, THP1-Dual)	EC50 (STING)
Nc1ncnc2c1ncn2C1OC2COP(=O)(S)OC3C(O)C(COP(=O)(S)OC2C1F)OC3n1c(=O)sc2c(N)ncnc21 (centres unmarked) [Compound 4-p2]		0.625 µM	36.2 µM
CO[C@H]1[C@H]2OP(=O)(S)OC[C@H]3O[C@@H](n4cnc5c(N)ncnc54)[C@H](F)[C@@H]3OP(=O)(S)OC[C@H]1O[C@H]2n1c(=O)sc2c(N)ncnc21 (some centres unmarked) [Compound 6-p1]	2.27 µM		
Nc1nc2c(ncn2[C@@H]2O[C@@H]3COP(=O)(S)O[C@H]4[C@@H](O)[C@H](n5cnc6ccccc6c5=O)O[C@@H]4COP(=O)(S)O[C@@H]2[C@@H]3O)c(=O)[nH]1 (some centres unmarked) [Compound 10-p1]	70.7 µM		
Nc1nc2c(ncn2[C@@H]2O[C@@H]3COP(=O)(S)O[C@H]4[C@@H](O)[C@H](n5cnc6ncccc6c5=O)O[C@@H]4COP(=O)(S)O[C@@H]2[C@@H]3O)c(=O)[nH]1 (some centres unmarked) [Compound 11-p1]	60.8 µM		
Nc1nc2c(ncn2[C@@H]2O[C@@H]3COP(=O)(S)O[C@H]4[C@@H](O)[C@H](n5ccc6nccn6c5=O)O[C@@H]4COP(=O)(S)O[C@@H]2[C@@H]3O)c(=O)[nH]1 (some centres unmarked) [Compound 13-p1]	188 µM		
Nc1ncnc2c1ncn2[C@@H]1O[C@@H]2COP(=O)(S)O[C@@H]3C(O)[C@@H](COP(O)(=S)O[C@H]2[C@H]1O)O[C@H]3n1cnc2c(N)ncnc21 (some centres unmarked) [Ref. 1, MLRR-CDA, reference compound]	2.94 µM		

Next, values leading:

EC50 (THP-1 dual cells)	EC50 (THP-1 dual cells; Homo sapiens, THP1-Dual)	EC50 (STING)	Structure (SMILES)
> 10 µM			Nc1ncnc2c1ncn2[C@@H]1O[C@@H]2COP(=O)(S)O[C@@H]3[C@H](O)[C@@H](COP(=O)(S)O[C@H]2[C@H]1O)O[C@H]3n1c(=O)[nH]c2c(N)ncnc21 (some centres unmarked) [Compound 1-p1]
45.8 µM			Nc1ncnc2c1ncn2[C@@H]1O[C@@H]2COP(=O)(S)O[C@@H]3[C@H](O)[C@@H](COP(=O)(S)O[C@H]2[C@H]1O)O[C@H]3n1c(=O)sc2c(N)ncnc21 (some centres unmarked) [Compound 2-p1]
0.417 µM		94.4 µM	Nc1ncnc2c1ncn2C1OC2COP(=O)(S)OC3C(O)C(COP(=O)(S)OC2C1F)OC3n1c(=O)sc2c(N)ncnc21 (centres unmarked) [Compound 4-p3]
